Assay results published in patent US10155753B2, “4-substituted-2-(5-substituted-1H-indol-2-yl)phenol derivatives, methods for preparing the phenol derivatives and pharmaceutical compositions for inhibiting cell proliferation and migration including the phenol derivatives” (KOREA UNIVERSITY RESEARCH AND BUSINESS FOUNDATION, priority 2015, dated 2018).

Key:
[1] = system: YANK-expressed cells (STK32C/MCF7 cell); assay: Inhibition of cell proliferation (MCF7, STK32C/MCF7 cells, 96-well, read at 450 nm); format: cell-based; settings: 24 h after addition of compound; FIGS. 3 to 6
Procedure: MCF7, STK32C/MCF7 cell (1×10^4/well) culture was plated in each well of a 96-well plate until it reached a final volume of 100 μl. After 24 h, the compounds at given concentrations were added. 24 h after the addition, 10 μl of an analytical reagent was plated in each well without bubbling. The reaction was allowed to proceed under basic culture conditions for 30 min to 1 h and the inhibitions of cell proliferation were measured at 450 nm.
FIGS. 3 to 6 show concentration-dependent inhibitions of proliferation of the YANK-expressed cells by treatment with the phenol derivatives of Formulae 7, 9, 13, and 32 (corresponding to Compound 34 in FIG. 2), respectively.

YANK3 = target: T1, YANK3 (Homo sapiens, UniProt Q86UX6); assay: In vitro kinase assay: inhibition of YANK3 phosphorylation (IP kinase, [γ-32P]ATP, autoradiography); format: biochemical; design: dose or concentration left out as unconfirmed; settings: MCF7 cells treated with each compound at 37° C. for 1 h; anti-HA IP, kinase reaction 30° C. 30 min
T1 construct: expressed in transfected cells; host or cells: MCF7 cells, Lipofectamine transfection, anti-HA immunoprecipitation
Procedure: Transduction was performed to overexpress YANK3-HA and YB1-HA genes in cells. Lipofectamine reagent (Invitrogen) was used for gene introgression. When cells were grown to a confluency of 60% in a culture dish, human YANK3-HA and YB1-HA genes were introduced into MCF7 cells. After 48 h, the gene-transfected cells were used for experiments. All cultured cells were harvested, lysed in a lysis buffer (1×RIPA buffer 1 mL, 1 mM PMSF, 1 mg/mL aprotinin, 1 mg/mL leupeptin, 2 mM DTT) for 30 min, and centrifuged at 15,000 rpm and 4° C. for 30 min. The supernatant was collected and its total protein content was quantified by the Bradford method. After YB1-HA gene introgression, the MCF7 cells were treated with each compound […] at 37° C. for 1 h. 1 μg of anti-HA antibody was cultured with […] of protein at 4° C. for 15 h, 20 μL of protein A/G-Sepharose was added thereto, followed by culture for another 2 h. The culture was centrifuged to precipitate the protein A/G-Sepharose, washed with IP kinase buffer (50 mM HEPES, pH 7.5, 10 mM MgCl2, 1 mM dithiothreitol, 2.5 mM EGTA, 1 mM NaF, 0.1 mM Na3VO4), and sufficiently mixed with 20 μL of IP kinase buffer. The kinase reaction was initiated by the addition of […] of [γ-^32P]ATP to 40 μL of IP kinase buffer. The reaction was allowed to proceed at 30° C. for 30 min. After addition of 5 μL of 2×SDS sample buffer, the reaction was quenched by boiling for 5 min, which was confirmed by SDS-PAGE electrophoresis and autoradiography.

T1 sequence (Q86UX6 whole entry): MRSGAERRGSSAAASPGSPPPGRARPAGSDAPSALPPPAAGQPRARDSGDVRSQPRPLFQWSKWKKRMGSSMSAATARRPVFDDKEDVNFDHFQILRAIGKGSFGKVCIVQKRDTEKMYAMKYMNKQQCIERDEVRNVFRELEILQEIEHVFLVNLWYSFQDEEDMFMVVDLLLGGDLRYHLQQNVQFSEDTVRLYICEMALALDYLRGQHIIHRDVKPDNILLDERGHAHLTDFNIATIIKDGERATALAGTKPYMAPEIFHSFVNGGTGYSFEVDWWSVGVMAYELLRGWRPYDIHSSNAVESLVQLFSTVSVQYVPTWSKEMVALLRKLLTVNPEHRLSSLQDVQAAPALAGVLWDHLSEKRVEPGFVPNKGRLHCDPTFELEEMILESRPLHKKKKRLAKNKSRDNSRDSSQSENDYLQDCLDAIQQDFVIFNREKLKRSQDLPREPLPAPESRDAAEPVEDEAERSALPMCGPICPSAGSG

Inhibition, % (inhibitions (%) of YANK3 phosphorylation) (YANK3) [%] | SMILES | concentration-dependent inhibition of proliferation of YANK-expressed cells [1]
144 | N#Cc1ccc2[nH]c(-c3cc(Br)ccc3O)cc2c1 [Formula 9, 2-(5-Bromo-2-hydroxyphenyl)-1H-indole-5-carbonitrile] | inhibited the proliferation of the YANK-expressed cells with high efficacy with increasing concentration
163 | COc1ccc(-c2ccc(O)c(-c3cc4ccccc4[nH]3)c2)cc1 [Formula 11, 3-(1H-Indol-2-yl)-4′-methoxybiphenyl-4-ol] | 
125 | Oc1ccc(-c2ccc(Cl)cc2)cc1-c1cc2cc(Cl)ccc2[nH]1 [Formula 16, 4′-Chloro-3-(5-chloro-1H-indol-2-yl)biphenyl-4-ol] | 

More lines, now with the values behind:

SMILES | Inhibition, % (inhibitions (%) of YANK3 phosphorylation) (YANK3) [%] | concentration-dependent inhibition of proliferation of YANK-expressed cells [1]
N=C(N)c1ccc2[nH]c(-c3cc(-c4ccc(Cl)cc4)ccc3O)cc2c1 [Compound 32, 2-(4′-Chloro-4-hydroxybiphenyl-3-yl)-1H-indole-5-carboximidamide] | 65 | inhibited the proliferation of the YANK-expressed cells with high efficacy with increasing concentration
N=C(N)c1ccc2[nH]c(-c3cc(-c4cccs4)ccc3O)cc2c1 [Compound 33, 2-(2-Hydroxy-5-(thiophen-2-yl)phenyl)-1H-indole-5-carboximidamide] | 30 | 
Oc1ccc(Br)cc1-c1cc2cc(F)ccc2[nH]1 [Formula 7, 4-Bromo-2-(5-fluoro-1H-indol-2-yl)phenol] | 74 | inhibited the proliferation of the YANK-expressed cells with high efficacy with increasing concentration
Oc1ccc(-c2ccc(Cl)cc2)cc1-c1cc2cc(F)ccc2[nH]1 [Formula 13] | 93 | inhibited the proliferation of the YANK-expressed cells with high efficacy with increasing concentration
